Measured values: the supplement of paper PMC10307832

Experiments:
Test in all cases: relative viability (nuclei count vs DMSO), 5 days (fraction); higher = more cells survive
[1] = test system: NCI-H1703
Method in brief: (§1)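 Relative viability equals treated-well nuclei counts divided by vehicle-well nuclei counts. Counts came from 4× images of lung cancer cell lines grown in 1536-well plates for 5 days after pin-tool dosing on the day after seeding. Dosing used one drug alone or a fixed anchor-drug dose plus five library-drug doses (not always all listed) in √10 steps, and values are medians of duplicate plates.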

[2] = test system: NCI-H596
Method in brief: as §1

[3] = test system: A549
Method in brief: as §1

[4] = test system: IA-LM
Method in brief: as §1

[5] = test system: EBC-1
Method in brief: as §1

[6] = test system: Calu-6
Method in brief: as §1

[7] = test system: NCI-H1299
Method in brief: as §1

Compound	relative viability ([1]; first compound 0.04 µM)	relative viability ([1]; first compound 0.1265 µM)	relative viability ([1]; first compound 4 µM)	relative viability ([2]; first compound 0.04 µM)	relative viability ([2]; first compound 0.1265 µM)	relative viability ([2]; first compound 0.4 µM)	relative viability ([2]; first compound 4 µM)	relative viability ([4]; first compound 0.04 µM)	relative viability ([4]; first compound 0.1265 µM)	relative viability ([4]; first compound 0.4 µM)	relative viability ([4]; first compound 4 µM)	relative viability ([5]; first compound 0.04 µM)	relative viability ([5]; first compound 0.1265 µM)	relative viability ([5]; first compound 0.4 µM)	relative viability ([5]; first compound 4 µM)	relative viability ([6]; first compound 0.04 µM)	relative viability ([6]; first compound 0.1265 µM)	relative viability ([6]; first compound 0.4 µM)	relative viability ([6]; first compound 4 µM)	relative viability ([7]; first compound 0.04 µM)	further results
COc1cc(N2CCC(C(N)=O)CC2)ccc1Nc1nc(N)c(Cl)c(Nc2ccccc2S(=O)(=O)C(C)C)n1 [HG-5-88-01] + C[C@]1(O)C[C@@H](c2nc(-c3ccc4ccc(-c5ccccc5)nc4c3)c3c(N)nccn32)C1 [Linsitinib] (partner 1 µM)	0.689	0.648	1.62	1	1.12	1.2	1.17	0.602	0.383	0.488	0.542	0.892	0.373	0.924	0.927	0.938	0.837	0.95	1.02	0.999	relative viability ([1]; first compound 1.265 µM): 0.486; relative viability ([2]; first compound 1.265 µM): 1.13; relative viability ([3]; first compound 0.04 µM): 0.59; relative viability ([3]; first compound 0.1265 µM): 0.771; relative viability ([3]; first compound 0.4 µM): 0.634; relative viability ([3]; first compound 1.265 µM): 0.432; relative viability ([3]; first compound 4 µM): 0.796; relative viability ([4]; first compound 1.265 µM): 0.314; relative viability ([5]; first compound 1.265 µM): 0.847; relative viability ([6]; first compound 1.265 µM): 0.929; relative viability ([7]; first compound 0.1265 µM): 0.97; relative viability ([7]; first compound 0.4 µM): 0.945; relative viability ([7]; first compound 1.265 µM): 0.97; relative viability ([7]; first compound 4 µM): 1.1
COc1cc(N2CCC(C(N)=O)CC2)ccc1Nc1nc(N)c(Cl)c(Nc2ccccc2S(=O)(=O)C(C)C)n1 [HG-5-88-01] + CS(=O)(=O)N1CCN(Cc2cc3nc(-c4cccc5[nH]ncc45)nc(N4CCOCC4)c3s2)CC1 [Pictilisib] (partner 1 µM)	0.217	0.223	0.226	0.447	0.42	0.382	0.312	0.398	0.252	0.244	0.145	0.394	0.362	0.339	0.217	0.942	0.869	0.848	0.698	0.745	relative viability ([1]; first compound 0.4 µM): 0.228; relative viability ([1]; first compound 1.265 µM): 0.222; relative viability ([2]; first compound 1.265 µM): 0.414; relative viability ([3]; first compound 0.04 µM): 0.482; relative viability ([3]; first compound 0.1265 µM): 0.495; relative viability ([3]; first compound 0.4 µM): 0.389; relative viability ([3]; first compound 1.265 µM): 0.323; relative viability ([3]; first compound 4 µM): 0.237; relative viability ([4]; first compound 1.265 µM): 0.172; relative viability ([5]; first compound 1.265 µM): 0.324; relative viability ([6]; first compound 1.265 µM): 0.824; relative viability ([7]; first compound 0.1265 µM): 0.724; relative viability ([7]; first compound 0.4 µM): 0.725; relative viability ([7]; first compound 1.265 µM): 0.643; relative viability ([7]; first compound 4 µM): 0.682
C[C@@H]1CN(CC(=O)Nc2ccc3c(c2)Cc2cccc(-c4cc(=O)cc(N5CCOCC5)o4)c2S3)C[C@H](C)O1 + C[C@]1(O)C[C@@H](c2nc(-c3ccc4ccc(-c5ccccc5)nc4c3)c3c(N)nccn32)C1 [Linsitinib] (partner 1 µM)	0.853	1.24	0.492	1.12	1.15	0.922	1	0.713	0.549	0.528	0.283	1.01	0.867	0.84	0.599	0.858	0.911	0.938	0.673	1.01	relative viability ([1]; first compound 0.4 µM): 0.549; relative viability ([3]; first compound 0.04 µM): 0.471; relative viability ([3]; first compound 0.1265 µM): 0.709; relative viability ([3]; first compound 0.4 µM): 0.58; relative viability ([3]; first compound 4 µM): 0.488; relative viability ([7]; first compound 0.1265 µM): 0.978; relative viability ([7]; first compound 0.4 µM): 0.964; relative viability ([7]; first compound 4 µM): 0.822
Clc1ccc(Nc2nnc(Cc3ccncc3)c3ccccc23)cc1 [Vatalanib] + CS(=O)(=O)N1CCN(Cc2cc3nc(-c4cccc5[nH]ncc45)nc(N4CCOCC4)c3s2)CC1 [Pictilisib] (partner 1 µM)	0.229	0.206	0.227	0.347	0.353	0.392	0.393	0.368	0.354	0.319	0.36	0.346	0.393	0.45	0.411	0.891	0.907	0.986	0.835	0.835	relative viability ([1]; first compound 0.4 µM): 0.242; relative viability ([1]; first compound 1.265 µM): 0.209; relative viability ([2]; first compound 1.265 µM): 0.371; relative viability ([3]; first compound 0.04 µM): 0.495; relative viability ([3]; first compound 0.1265 µM): 0.506; relative viability ([3]; first compound 0.4 µM): 0.502; relative viability ([3]; first compound 1.265 µM): 0.52; relative viability ([3]; first compound 4 µM): 0.505; relative viability ([4]; first compound 1.265 µM): 0.337; relative viability ([5]; first compound 1.265 µM): 0.276; relative viability ([6]; first compound 1.265 µM): 0.883; relative viability ([7]; first compound 0.1265 µM): 0.703; relative viability ([7]; first compound 0.4 µM): 0.967; relative viability ([7]; first compound 1.265 µM): 0.66; relative viability ([7]; first compound 4 µM): 0.857
CC(C)Oc1cc(Nc2nc(N[C@@H](C)c3ccc(F)cn3)ncc2Cl)n[nH]1 [AZ23] + CC(C)C[C@H](NC(=O)[C@H](Cc1ccccc1)NC(=O)c1cnccn1)B(O)O [Bortezomib] (partner 0.002 µM)																					relative viability ([1]; first compound 0.03162 µM): 0.367; relative viability ([1]; first compound 0.3162 µM): 0.363; relative viability ([2]; first compound 0.01 µM): 1.17; relative viability ([2]; first compound 0.03162 µM): 1.06; relative viability ([2]; first compound 0.3162 µM): 1.1; relative viability ([4]; first compound 0.01 µM): 1; relative viability ([4]; first compound 0.03162 µM): 0.883; relative viability ([4]; first compound 0.3162 µM): 0.776; relative viability ([5]; first compound 0.01 µM): 0.579; relative viability ([5]; first compound 0.03162 µM): 0.64; relative viability ([5]; first compound 0.3162 µM): 0.493; relative viability ([6]; first compound 0.03162 µM): 1.15; relative viability ([6]; first compound 0.3162 µM): 1.04; relative viability ([7]; first compound 0.01 µM): 1.03; relative viability ([7]; first compound 0.03162 µM): 1.02; relative viability ([7]; first compound 0.3162 µM): 1.1
C[C@@H]1CN(CC(=O)Nc2ccc3c(c2)Cc2cccc(-c4cc(=O)cc(N5CCOCC5)o4)c2S3)C[C@H](C)O1 + CC(C)C[C@H](NC(=O)[C@H](Cc1ccccc1)NC(=O)c1cnccn1)B(O)O [Bortezomib] (partner 0.002 µM)	0.469	0.365	0.254	0.937	1.12	1.01	0.923	0.669	0.773	0.832	0.375	0.636	0.535	0.472	0.335	1.07	1.03	1.08	0.66	1.03	relative viability ([1]; first compound 0.4 µM): 0.241; relative viability ([7]; first compound 0.1265 µM): 1.03; relative viability ([7]; first compound 0.4 µM): 1.01; relative viability ([7]; first compound 4 µM): 0.926
COc1cc(N2CCC(C(N)=O)CC2)ccc1Nc1nc(N)c(Cl)c(Nc2ccccc2S(=O)(=O)C(C)C)n1 [HG-5-88-01] + CC(C)C[C@H](NC(=O)[C@H](Cc1ccccc1)NC(=O)c1cnccn1)B(O)O [Bortezomib] (partner 0.002 µM)	0.263	0.42	0.239	1.25	0.948	1	1.02	0.835	0.849	0.724	0.666	0.567	0.624	0.549	0.241	1.03	0.998	0.978	0.841	1.02	relative viability ([1]; first compound 0.4 µM): 0.384; relative viability ([1]; first compound 1.265 µM): 0.312; relative viability ([2]; first compound 1.265 µM): 0.964; relative viability ([4]; first compound 1.265 µM): 0.812; relative viability ([5]; first compound 1.265 µM): 0.474; relative viability ([6]; first compound 1.265 µM): 0.925; relative viability ([7]; first compound 0.1265 µM): 1.02; relative viability ([7]; first compound 0.4 µM): 1.03; relative viability ([7]; first compound 1.265 µM): 1.04; relative viability ([7]; first compound 4 µM): 1.04
